One test concerns E. faecium 12697. It is filed as cell-based, Enterococcus faecalis NCTC 12697 (E. faecium 12697). The conditions noted are these: 12697, 18 h. The protocol: (§1) The minimal inhibitory concentration (MIC) and minimal bactericidal concentration (MBC) values of the peptides were determined by established protocols to evaluate their antimicrobial activities ([Lin et al., 2021]). The MIC value was the lowest concentration of a peptide that inhibits visible bacterial growth after incubating 18 h (CLSI standard). Once the MIC values were determined, an aliquot from the bacterial culture exposed to the peptide at or above its MIC value was inoculated on a Mueller Hinton agar (MHA) and was incubated at 37 for 18 h (CLSI standard). The MBC value was the lowest concentration of a peptide that kills 99.9% of bacteria. Antimicrobial activities of synthetic peptides were assessed by determination of MIC and MBC values using eight kinds of bacteria and yeast: Gram-positive bacteria, Staphylococcus aureus ATCC 6538 (S. aureus 6538), Methicillin-resistant Staphylococcus aureus NCTC 12493 (MRSA 12493), and Enterococcus faecalis NCTC 12697 (E. faecium 12697); Gram-negative bacteria, Escherichia coli ATCC 8739 (E. coli 8739), Pseudomonas aeruginosa ATCC CRM 9027 (P. aeruginosa 9027), Klebsiella pneumoniae ATCC 43816 (K. pneumoniae 43816), and Acinetobacter baumannii BAA 747 (A. baumannii 747); and pathogenic yeast, Candida albicans ATCC 10231 (C. albicans 10231).

Test [1] deals with Escherichia coli ATCC 8739. In kind it is cell-based. Particulars: ATCC 8739, 18 h. How it is done:
as §1

Test [2] deals with Methicillin-resistant Staphylococcus aureus NCTC 12493. In kind it is cell-based. The conditions noted are these: NCTC 12493, 18 h. How it is done: as §1
Test [3] has as its system Staphylococcus aureus ATCC 6538. It is filed as cell-based. Particulars: ATCC 6538, 18 h. The protocol:
as §1

For test [4], the system named is Pseudomonas aeruginosa ATCC CRM 9027. It is filed as cell-based. The conditions noted are these: ATCC CRM 9027, 18 h. How it is done:
as §1

Test [5] concerns Acinetobacter baumannii BAA 747. It is filed as cell-based. Particulars: BAA 747, 18 h. The protocol: as §1
In test [6] the test system is Candida albicans ATCC 10231. It is filed as cell-based. The conditions noted are these: ATCC 10231, 18 h. The protocol:
as §1

The subject of test [7] is Klebsiella pneumoniae ATCC 43816. It is filed as cell-based. The conditions noted are these: ATCC 43816, 18 h. How it is done:
as §1

Each structure is given as a SMILES string. Converted amounts (≈) assume the structure as drawn. Positions of bridges follow the written chain, without caps; N, C: chain ends. Residues, ends and D or L forms follow the SMILES beside them.

As usually defined, the MIC is the smallest concentration in the dilution series that meets the test's criterion for growth inhibition. Consider `CC[C@H](C)[C@H](NC(=O)[C@H](CCCCN)NC(=O)[C@H](CCCCN)NC(=O)[C@H](CC(C)C)NC(=O)[C@@H](NC(=O)[C@H](CCCCN)NC(=O)[C@H](C)NC(=O)[C@H](C)NC(=O)[C@@H](NC(=O)CNC(=O)[C@H](C)NC(=O)[C@@H](NC(=O)[C@@H](NC(=O)[C@@H]1CCCN1C(=O)[C@H](Cc1ccccc1)NC(=O)[C@@H](N)Cc1ccccc1)[C@@H](C)CC)C(C)C)C(C)C)C(C)C)C(=O)N[C@@H](Cc1ccccc1)C(=O)N[C@H]1CSSC[C@@H](C(=O)O)NC(=O)[C@H](CCCNC(=N)N)NC(=O)[C@H](CCCNC(=N)N)NC(=O)[C@H](CO)NC(=O)[C@H]([C@@H](C)CC)NC(=O)[C@H]([C@@H](C)O)NC1=O` [brevinin-1pl-2R] (H-FFPIVAGVAAKVLKKIFCTISRRC-OH; disulfide 18-24), for which the MBC came to 4 µM (≈ 10.7 µg/mL) against E. faecium 12697; 4 µM (≈ 10.7 µg/mL) in test [1]; 2 µM (≈ 5.33 µg/mL) in test [2]; 2 µM (≈ 5.33 µg/mL) in test [3]; 8 µM (≈ 21.3 µg/mL) in test [4]; 16 µM (≈ 42.7 µg/mL) in test [5]. Also, the MBC in test [6] is above 128 µM; in test [7] it was 8 µM (≈ 21.3 µg/mL). The MIC in the test on E. faecium 12697 is 4 µM (≈ 10.7 µg/mL); in test [1] it was 4 µM (≈ 10.7 µg/mL); in test [2] it was 2 µM (≈ 5.33 µg/mL); in test [3] it was 2 µM (≈ 5.33 µg/mL); in test [4] it was 8 µM (≈ 21.3 µg/mL); in test [5], 8 µM (≈ 21.3 µg/mL). The MIC was above 128 µM in test [6] and 8 µM (≈ 21.3 µg/mL) in test [7].

For `CC[C@H](C)[C@H](NC(=O)[C@H](CCCNC(=N)N)NC(=O)[C@H](CCCNC(=N)N)NC(=O)[C@H](CC(C)C)NC(=O)[C@@H](NC(=O)[C@H](CCCNC(=N)N)NC(=O)[C@H](C)NC(=O)[C@H](C)NC(=O)[C@@H](NC(=O)CNC(=O)[C@H](C)NC(=O)[C@@H](NC(=O)[C@@H](NC(=O)[C@@H]1CCCN1C(=O)[C@H](Cc1ccccc1)NC(=O)[C@@H](N)Cc1ccccc1)[C@@H](C)CC)C(C)C)C(C)C)C(C)C)C(=O)N[C@@H](Cc1ccccc1)C(=O)N[C@H]1CSSC[C@@H](C(=O)O)NC(=O)[C@H](CCCNC(=N)N)NC(=O)[C@H](CCCNC(=N)N)NC(=O)[C@H](CO)NC(=O)[C@H]([C@@H](C)CC)NC(=O)[C@H]([C@@H](C)O)NC1=O` [brevinin-1pl-5R] (H-FFPIVAGVAARVLRRIFCTISRRC-OH; disulfide 18-24), the MBC is 2 µM (≈ 5.5 µg/mL) in the test on E. faecium 12697; 8 µM (≈ 22 µg/mL) in test [1]; 2 µM (≈ 5.5 µg/mL) in test [2]; 2 µM (≈ 5.5 µg/mL) in test [3]; 16 µM (≈ 44 µg/mL) in test [4]; 32 µM (≈ 88 µg/mL) in test [5]. In addition, the MBC in test [6] is above 128 µM; in test [7], 16 µM (≈ 44 µg/mL). For the same molecule, the MIC in the test with E. faecium 12697 turned out to be 2 µM (≈ 5.5 µg/mL); in test [1], 8 µM (≈ 22 µg/mL); in test [2], 2 µM (≈ 5.5 µg/mL); in test [3] it was 2 µM (≈ 5.5 µg/mL); in test [4], 16 µM (≈ 44 µg/mL); in test [5] it was 16 µM (≈ 44 µg/mL). In addition, the minimal inhibitory concentration (MIC) in test [6] was above 128 µM; in test [7] it was 16 µM (≈ 44 µg/mL).

As for `CC[C@H](C)[C@H](NC(=O)[C@H](CCCCN)NC(=O)[C@H](CCCCN)NC(=O)[C@H](CC(C)C)NC(=O)[C@@H](NC(=O)[C@H](CCCCN)NC(=O)[C@H](C)NC(=O)[C@H](C)NC(=O)[C@@H](NC(=O)CNC(=O)[C@H](C)NC(=O)[C@@H](NC(=O)[C@H](CCCCN)NC(=O)[C@@H]1CCCN1C(=O)[C@H](Cc1ccccc1)NC(=O)[C@@H](N)Cc1ccccc1)C(C)C)C(C)C)C(C)C)C(=O)N[C@@H](Cc1ccccc1)C(=O)N[C@H]1CSSC[C@@H](C(=O)O)NC(=O)[C@H](CCCCN)NC(=O)[C@H](CCCCN)NC(=O)[C@H](CO)NC(=O)[C@H]([C@@H](C)CC)NC(=O)[C@H]([C@@H](C)O)NC1=O` [brevinin-1pl-6K] (H-FFPKVAGVAAKVLKKIFCTISKKC-OH; disulfide 18-24), the MBC against E. faecium 12697 is 16 µM (≈ 42 µg/mL); in test [1], 4 µM (≈ 10.5 µg/mL); in test [2] it was 4 µM (≈ 10.5 µg/mL); in test [3], 4 µM (≈ 10.5 µg/mL); in test [4], 8 µM (≈ 21 µg/mL); in test [5], 16 µM (≈ 42 µg/mL). The MBC was above 128 µM in test [6] and 8 µM (≈ 21 µg/mL) in test [7]. The MIC was found to be 16 µM (≈ 42 µg/mL) against E. faecium 12697; 4 µM (≈ 10.5 µg/mL) in test [1]; 4 µM (≈ 10.5 µg/mL) in test [2]; 4 µM (≈ 10.5 µg/mL) in test [3]; 8 µM (≈ 21 µg/mL) in test [4]; 16 µM (≈ 42 µg/mL) in test [5]. Also, the figures for the MIC in test [6] and in test [7] were above 128 µM and 8 µM (≈ 21 µg/mL), respectively.

Consider `CC[C@H](C)[C@H](NC(=O)[C@H](CCCCN)NC(=O)[C@H](CCCCN)NC(=O)[C@H](CC(C)C)NC(=O)[C@@H](NC(=O)[C@H](CCCCN)NC(=O)[C@H](C)NC(=O)[C@H](C)NC(=O)[C@@H](NC(=O)CNC(=O)[C@H](C)NC(=O)[C@@H](NC(=O)[C@@H](NC(=O)[C@@H]1CCCN1C(=O)[C@H](Cc1ccccc1)NC(=O)[C@@H](N)Cc1ccccc1)[C@@H](C)CC)C(C)C)C(C)C)C(C)C)C(=O)N[C@@H](Cc1ccccc1)C(=O)N[C@H]1CSSC[C@@H](C(=O)O)NC(=O)[C@H](CCCCN)NC(=O)[C@H](CCCCN)NC(=O)[C@H](CO)NC(=O)[C@H]([C@@H](C)CC)NC(=O)[C@H]([C@@H](C)O)NC1=O` [brevinin-1pl] (H-FFPIVAGVAAKVLKKIFCTISKKC-OH; disulfide 18-24), for which the MBC in the test on E. faecium 12697 was 4 µM (≈ 10.4 µg/mL); in test [1], 4 µM (≈ 10.4 µg/mL); in test [2], 2 µM (≈ 5.22 µg/mL); in test [3], 2 µM (≈ 5.22 µg/mL); in test [4], 16 µM (≈ 41.8 µg/mL); in test [5] it was 16 µM (≈ 41.8 µg/mL). The MBC is above 128 µM in test [6] and 8 µM (≈ 20.9 µg/mL) in test [7]. Also, the MIC is 4 µM (≈ 10.4 µg/mL) against E. faecium 12697; 4 µM (≈ 10.4 µg/mL) in test [1]; 2 µM (≈ 5.22 µg/mL) in test [2]; 2 µM (≈ 5.22 µg/mL) in test [3]; 8 µM (≈ 20.9 µg/mL) in test [4]; 8 µM (≈ 20.9 µg/mL) in test [5]. Besides, the MIC in test [6] was above 128 µM; in test [7], 8 µM (≈ 20.9 µg/mL).

Values taken from PMC12127288, “Engineering of antimicrobial peptide Brevinin-1pl: arginine, lysine, and histidine substitutions enhance antimicrobial-anticancer efficacy with reduced cytotoxicity” (Frontiers in Chemistry, 2025).
